Converted amounts (≈) assume the structure as drawn. Like-named read-outs stand apart in the source and are kept apart here.

This note sets out measurements from US20070099890A1, “Novel cephalosporin derivatives, its pharmaceutically acceptable salts and manufacturing process thereof” (priority 2003, published 2007).

What all share (assay): In vitro antibacterial activity test (2-fold agar dilution MIC)
Holding throughout (assay type): cell-based
What all share (conditions): for MIC: read-out: Minimum inhibitory concentrations (MICs)
For orientation: In agar dilution, organisms are placed on agar that contains the substance at set levels.

For assay [1], the system named is Staphylococcus aureus 001 (MRSA). On the procedure: (§1) The in vitro antibacterial activity of the compounds prepared in the Examples of the invention was determined as follows: after incubation of the corresponding bacterium for 18 h at 37° C., minimum inhibitory concentrations (MICs, μg/mL) were determined by the 2-fold agar dilution method with Mueller-Hinton Agar.

Assay [2] deals with Staphylococcus aureus 002 (MRSA). On the procedure: as §1
The test system of assay [3] is Staphylococcus aureus 003 (MRSA). On the procedure: as §1
Assay [4] deals with Staphylococcus aureus 004 (MRSA). How it is done:
as §1

Assay [5] deals with Staphylococcus aureus 005 (MRSA). How it is done:
as §1

Assay [6] relates to Staphylococcus aureus 006 (MRSA). How it is done:
as §1

The test system of assay [7] is Staphylococcus aureus 007 (MRSA). How it is done: as §1
Assay [8] concerns Staphylococcus aureus 008 (MRSA). How it is done:
as §1

In assay [9] the test system is Staphylococcus aureus 009 (MRSA). How it is done:
as §1

Assay [10] has as its system Staphylococcus aureus 010 (MRSA). On the procedure: as §1
Where [11] appears, read: MRSA Staphylococcus aureus 001, 2-fold agar dilution, Mueller-Hinton Agar, 18 h at 37° C.
The mark [12] stands for this setting: MRSA Staphylococcus aureus 002, 2-fold agar dilution, Mueller-Hinton Agar, 18 h at 37° C.
The mark [13] stands for this setting: MRSA Staphylococcus aureus 003, 2-fold agar dilution, Mueller-Hinton Agar, 18 h at 37° C.
The mark [14] stands for this setting: MRSA Staphylococcus aureus 004, 2-fold agar dilution, Mueller-Hinton Agar, 18 h at 37° C.
Where [15] appears, read: MRSA Staphylococcus aureus 005, 2-fold agar dilution, Mueller-Hinton Agar, 18 h at 37° C.
The mark [16] stands for this setting: MRSA Staphylococcus aureus 006, 2-fold agar dilution, Mueller-Hinton Agar, 18 h at 37° C.
Setting [17] is: MRSA Staphylococcus aureus 007, 2-fold agar dilution, Mueller-Hinton Agar, 18 h at 37° C.
Setting [18] is: MRSA Staphylococcus aureus 008, 2-fold agar dilution, Mueller-Hinton Agar, 18 h at 37° C.
[19] abbreviates: MRSA Staphylococcus aureus 009, 2-fold agar dilution, Mueller-Hinton Agar, 18 h at 37° C.
Setting [20] is: MRSA Staphylococcus aureus 010, 2-fold agar dilution, Mueller-Hinton Agar, 18 h at 37° C.
The mark [21] stands for this setting: Staphylococcus aureus, MRSA, 18 h.

As for `O=C(CSc1ccccc1)N[C@@H]1C(=O)N2C(C(=O)O)=C(C=Cc3cc(-c4ccc(Br)cc4)no3)CS[C@H]12` [Compound 30], the “Minimum inhibitory concentrations (MICs)” value in assay [1] (setting [11]) was found to be 3.125 µg/mL (≈ 5.22 µM); in assay [2] (setting [12]), 0.002 µg/mL (≈ 0.00334 µM); in [3] (setting [13]) it was 6.250 µg/mL (≈ 10.4 µM); in [4] (setting [14]), 3.125 µg/mL (≈ 5.22 µM); in [5] (setting [15]), 0.098 µg/mL (≈ 0.164 µM); in assay [6] (setting [16]) it was 0.004 µg/mL (≈ 0.00668 µM). For the same compound, the “Minimum inhibitory concentrations (MICs)” value was less than 0.002 µg/mL in [7] (setting [17]), 0.195 µg/mL (≈ 0.326 µM) in assay [8] (setting [18]), 0.195 µg/mL (≈ 0.326 µM) in [9] (setting [19]) and 0.195 µg/mL (≈ 0.326 µM) in [10] (setting [20]).
In the case of `CN[C@H](CC(C)C)C(=O)N[C@H]1C(=O)N[C@@H](CC(N)=O)C(=O)N[C@H]2C(=O)N[C@H]3C(=O)N[C@H](C(=O)N[C@H](C(=O)O)c4cc(O)cc(O)c4-c4cc3ccc4O)[C@H](O)c3ccc(c(Cl)c3)Oc3cc2cc(c3O[C@@H]2O[C@H](CO)[C@@H](O)[C@H](O)[C@H]2O[C@H]2C[C@](C)(N)[C@H](O)[C@H](C)O2)Oc2ccc(cc2Cl)[C@H]1O` [vancomycin], the MIC was found to be 3.12 µg/mL (≈ 2.16 µM) in assay [1] (setting [21]); 1.56 µg/mL (≈ 1.08 µM) in assay [2] (setting [21]); 0.781 µg/mL (≈ 0.539 µM) in assay [3] (setting [21]); 0.781 µg/mL (≈ 0.539 µM) in [4] (setting [21]); 0.781 µg/mL (≈ 0.539 µM) in assay [5] (setting [21]); 0.781 µg/mL (≈ 0.539 µM) in [6] (setting [21]). Further, the MIC in assay [7] (setting [21]), in assay [8] (setting [21]), in [9] (setting [21]) and in [10] (setting [21]) was 0.781 µg/mL (≈ 0.539 µM) throughout.
Consider `CO/N=C(\C(=O)N[C@@H]1C(=O)N2C(C(=O)O)=C(COC(C)=O)CS[C@H]12)c1csc(N)n1` [cefotaxime], for which the MIC is 25 µg/mL (≈ 54.9 µM) in assay [1] (setting [11]); 3.12 µg/mL (≈ 6.86 µM) in assay [2] (setting [12]); greater than 100 µg/mL in assay [3] (setting [13]); greater than 10 µg/mL in assay [4] (setting [14]); 6.25 µg/mL (≈ 13.7 µM) in [5] (setting [15]); 1.56 µg/mL (≈ 3.43 µM) in assay [6] (setting [16]). Besides, the MIC worked out at 1.56 µg/mL (≈ 3.43 µM) in assay [7] (setting [17]), 1.56 µg/mL (≈ 3.43 µM) in [8] (setting [18]), 6.25 µg/mL (≈ 13.7 µM) in [9] (setting [19]) and 6.25 µg/mL (≈ 13.7 µM) in [10] (setting [20]).
